{"source": "patent US20060282132A1", "about": "“Photodynamic therapy equipment, method for controlling photodynamic therapy equipment and method of photodynamic method” (KEIO UNIVERSITY, priority 2003, published 2006)", "key": {"[1]": {"details": "concentration 6 μg/ml"}, "[2]": {"system": "mouse derived macrophage like cell J774.1", "method": "With regard to arteriosclerotic athero model, mouse derived macrophage like cell J774.1 was used. PDT was performed after contacting with the second generation photosensitive substance ATX-S10 (ATX-S10 Na(II) (K.K. Hikari Chemical Lab.)) with good excretion, concentration of 6 μg/ml for 24 hours.\nIrradiation of the light was performed with the light source: excimer dye laser (EDL-1, Hamamatsu Photonix Co., wavelength 670 nm, pulse width 10 ns); pulse energy density 1.2 to 9.5 mJ/cm^2 (corresponding to peak intensity […]); and repetition frequency 5 to 80 Hz. PDT effect as evaluated by a rate of cell death using MTT after performing for 24 hours.\nMeasurement was performed in concentration of administered photosensitive substance at 25 μg/ml and 50 μg/ml."}}}
{"compound": "C=Cc1c(C)c2cc3nc(cc4[nH]c(cc5nc(cc1[nH]2)C(C)=C5CCC(=O)NC(CC(=O)[O-])C(=O)[O-])c(CCC(=O)NC(CC(=O)[O-])C(=O)[O-])c4C)C(C)(O)/C3=C\\C=NO.[Na+].[Na+].[Na+].[Na+]", "note": "(stereo not shown) [ATX-S10, Iminochlorin aspartic acid derivative]", "values": [{"measurement": "changes of absorption (bleaching) with changing irradiation energy density", "setting": "[1]", "result": "depends on total irradiation energy (J/cm^2) and not on peak intensity"}, {"measurement": "PDT effect (rate of cell death)", "setting": "[2]; 6 μg/ml for 24 hours, excimer dye laser 670 nm, pulse width 10 ns, high pulse energy density (high peak intensity), repetition frequency 5 to 80 Hz, MTT after 24 hours", "result": "PDT effect almost disappeared"}, {"measurement": "rate of cell death at maximum", "setting": "[2]; 6 μg/ml for 24 hours, excimer dye laser 670 nm, pulse width 10 ns, low pulse energy density (low peak intensity), repetition frequency 5 to 80 Hz, MTT after 24 hours", "result": "≤ 70", "unit": "%"}, {"measurement": "rate of cell death with changing irradiation energy density", "setting": "[2]; 25 μg/ml and 50 μg/ml, same irradiation energy density", "result": "rate of cell death is different, if the concentration of photosensitive substance is different"}]}
